Molecular target: T1, human TAS1R2-S212G (subunit alone) (Homo sapiens, UniProt Q8TE23, S212G)
T1 construct: expressed in transfected cells; host or cells: HEK293T-Gα16gust44
T1 sequence (Q8TE23 20-839 S212G): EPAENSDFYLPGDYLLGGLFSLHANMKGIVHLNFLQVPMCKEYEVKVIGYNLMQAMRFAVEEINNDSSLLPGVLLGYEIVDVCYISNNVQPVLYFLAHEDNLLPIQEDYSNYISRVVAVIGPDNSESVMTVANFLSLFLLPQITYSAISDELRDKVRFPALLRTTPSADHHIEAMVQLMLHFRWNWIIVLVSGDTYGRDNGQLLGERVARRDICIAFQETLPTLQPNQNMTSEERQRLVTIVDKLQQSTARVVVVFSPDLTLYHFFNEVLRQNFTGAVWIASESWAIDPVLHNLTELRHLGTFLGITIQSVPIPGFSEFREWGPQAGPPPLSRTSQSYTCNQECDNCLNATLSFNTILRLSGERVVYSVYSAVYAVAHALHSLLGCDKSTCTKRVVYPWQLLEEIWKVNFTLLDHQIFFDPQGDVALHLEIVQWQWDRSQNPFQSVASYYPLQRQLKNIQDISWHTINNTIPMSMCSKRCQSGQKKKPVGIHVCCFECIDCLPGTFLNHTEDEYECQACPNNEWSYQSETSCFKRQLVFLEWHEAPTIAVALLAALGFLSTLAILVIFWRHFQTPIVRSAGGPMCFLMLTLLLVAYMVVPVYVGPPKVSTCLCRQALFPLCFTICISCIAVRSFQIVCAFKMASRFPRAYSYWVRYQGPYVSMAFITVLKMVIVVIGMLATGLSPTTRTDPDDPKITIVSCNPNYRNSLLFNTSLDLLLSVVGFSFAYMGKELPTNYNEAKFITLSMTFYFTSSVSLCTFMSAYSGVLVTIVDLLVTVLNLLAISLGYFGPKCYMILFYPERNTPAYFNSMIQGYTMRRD
Assay: Calcium mobilisation assay, TAS1R2-S212G subunit alone
Type: cell-based
Description: The coding sequences for TAS1R2 and TAS1R3 were commercially synthesised, and the human codon was optimised for expression in human cells. The coding sequences of human TAS1R2 and TAS1R3 were subcloned and inserted into the mammalian expression vectors pcDNA6/myc-HisA and pcDNA4/myc-HisA (Invitrogen; Thermo Fisher Scientific; Illkirch, France) between the EcoRI and NotI restriction sites, generating the plasmids pcDNA6-TAS1R2 and pcDNA4-TAS1R3, respectively. To increase protein expression in mammalian cells, an upstream start codon was used, which was a sequence called MAX, corresponding to the QBI SP163 element also described in pcDNA4-HisMax (Invitrogen; Thermo Fisher Scientific; Illkirch, France). To measure the expression level of the receptor by immunohistochemistry, we used the FLAG sequence ([…]) in the C-terminal position, which encodes the FLAG tag epitope. […]
The HEK293T cells were kindly provided by Jay P. Slack (Givaudan Flavors Corporation; Cincinnati, OH, USA). […] The fluorescence intensity was measured for 90 s (excitation 488 nm, emission 510 nm) in an automated fluorometric FlexStation®3 Multi-Mode microplate reader (Molecular Devices; San Jose, CA, USA). […] The Ca^2+ changes were expressed as fractional changes in fluorescent light intensity: ΔF/F = (F − F0)/F0, where F was the fluorescent light intensity at each point, and F0 was the value of emitted fluorescent light prior to stimulus application. To calculate dose–response relationships, the changes in fluorescence upon stimulus application were averaged, mock-subtracted and baseline-corrected. […] The half-maximal effective concentrations (EC50 values) and maximal signal amplitudes were calculated using SigmaPlot software (version 15.0) (Systat Software; San Jose, CA, USA).
For in vitro calcium mobilisation assay performed on hTAS1R2-SNPs, hTAS1R3-SNPs and mTAS1R3-I60T, 6 to 7 concentrations were tested for each sweet compound, plus buffer alone. All concentration–receptor combinations were measured in duplicate, and each experiment was repeated at least 4 times (8 wells/concentration). […]

EC50: 178 ± 22.7 µM
R1 = Variant EC50/WT EC50: 2.0
Max ΔF/F0 (maximal signal amplitude): 0.47 ± 0.02
Structure (SMILES): C=C(C)[C@@H]1CC=C(/C=N/O)CC1 [Perillartine, perillartine]

— PMC11945486, “TAS1R2/TAS1R3 Single-Nucleotide Polymorphisms Affect Sweet Taste Receptor Activation by Sweeteners: The SWEET Project” (Nutrients, 2025)
